Measurements published in patent publication US5476841A, “Inhibitors of herpes viral ribonucleotide reductase” (Bio-Mega/Boehringer Ingelheim Research Inc., priority 1994, dated 1995).
Where a SMILES comes first, the peptide text is derived from it. [ ]: non-standard residue; d: D form. The star is where a group is joined. Asp(3,3-(CH2)4) = N[C@H](C(=O)O)C1(C(=O)O)CCCC1; Dibenzylacetyl = O=C(C(Cc1ccccc1)Cc1ccccc1)*; Leu(γ-Me)ol = CC(C)(C)C[C@@H](CO)N*; tBuAla = CC(C)(C)C[C@H](N)C(=O)O; Tle = CC(C)(C)[C@H](N)C(=O)O; NMeV = CN[C@H](C(=O)O)C(C)C; X1 = CC[C@@H](N*)C(C)(C)C; Pyrrolidide = C1CCN(*)C1; NHCH2tBu = CC(C)(C)CN*

Experiments:
HSV-2 = test: Inhibition of Herpes Simplex virus (HSV-2) replication in cell culture; assay type: cell-based; settings: BHK-21/C13 cells, serum starved, HSV-2 strain HG-52, 0.02 PFU/cell, 29 h incubation; read-out: EC50, concentration effecting a 50% inhibition of HSV-2 virus replication
Experimental: Inhibition of Herpes Simplex virus (HSV-2) Replication in Cell Culture
BHK-21/C13 cells (ATCC CCL 10) are incubated for two days in 150 cm^2 T-flasks (1.5×10^6 cells/flask) with alpha-MEM medium (Gibco Canada Inc., Burlington, Ontario, Canada) supplemented with 8% (v/v) fetal bovine serum (FBS, Gibco Canada Inc.). The cells are trypsinized and then transferred to fresh media in a 24 well plate to give 2.5×10^5 cells in 750 μL of media per well. The cells are incubated at 37° for a period of 6 h to allow them to adhere to the plate. Thereafter, the cells are washed once with 500 μL of alpha-MEM supplemented with 0.5% (v/v) FBS and then incubated with 750 μL of the same media (low serum) for 3 days. After this period of serum starvation, the low serum medium is removed and the cells are incubated in 500 μL of BBMT for 2 to 3 hours. {BBMT medium is described by P. Brazeau et al., Proc. Natl. Acad. Sci. USA, 79, 7909 (1982).} Thereafter, the cells are infected with HSV-2 (multiplicity of infection=0.02 PFU/cell) in 100 μL of BBMT medium. (Note: The HSV-2 used was strain HG-52, see Y. Langelier and G. Buttin, J. Gen. Virol., 57, 21 (1981); the virus was stored at -80°.) Following 1 h of virus adsorption at 37°, the media is removed and the cells are washed with BBMT (3×250 μL). The cells in each well are incubated with or without (control) appropriate concentrations of the test agent dissolved in 200 μL of BBMT medium. After 29 h of incubation at 37°, the infected cells are harvested by first freezing the plate at -80°, followed by thawing. The cells in each well are scraped off the surface of the well with the help of the melting ice fragments. After complete thawing, the cell suspensions are collected and each well is rinsed with 150 μL of BBMT medium. The viral sample (suspension plus washing) is sonicated gently for 4 min at 4°. Cell debris are removed by centrifugation (1000 times gravity for 10 minutes at 4°). The supernatant is collected and stored at -80° until determination of viral titer.
Viral titration was performed by a modification of the colorimetric assay method of M. Langlois et al., Journal of Biological Standardization, 14, 201 (1986), and which is described in detail by R. Deziel and Y. Guindon, supra.
Accordingly, the percentage of virus growth inhibition can be determined for the various concentrations of the test agent, and the concentration of the test agent (i.e. the peptide of formula 1) effecting a 50% inhibition of virus replication, i.e. the EC50, can be calculated.

[1] = target: T1, HSV-1 ribonucleotide reductase (Human herpesvirus 1, UniProt P08543); test: Inhibition of Herpes Simplex virus (HSV-1) ribonucleotide reductase; assay type: biochemical; settings: partially purified enzyme from HSV-1 strain F infected BHK-21/C13 cells; mean of four assays; read-out: IC50, concentration causing a 50% reduction of the HSV-1 ribonucleotide reductase activity
T1 construct: obtained from quiescent BHK-21/C13 cells infected with strain F HSV-1 virus; made in house; host or cells: quiescent BHK-21/C13 cells infected with HSV-1 strain F (virus-encoded enzyme, partially purified)
Excerpt: Inhibition of Herpes Simplex virus (HSV-1) Ribonucleotide Reductase
HSV-1 ribonucleotide reductase (partially purified) was obtained from quiescent BHK-21/C13 cells infected with strain F HSV-1 virus at 10 plaque forming units/cell as described by E. A. Cohen et al., J. Gen. Virol., 66, 733 (1985).
The assay described by P. Gaudreau et al., J. Biol. Chem., 262, 12413 (1987), is used to evaluate the capability of the compounds of this invention to inhibit HSV-1 ribonucleotide reductase activity. Results are expresed as the concentration of the compound producing 50% of the maximal inhibition (IC50) of enzyme activity. The number of units of the enzyme preparation used in each assay was constant, based on the specific activity of the enzyme preparation. The results are relative to the activity obtained in control experiments without the test compound and represent the mean of four assays that varied less than 10% with each other.

T1 sequence (P08543 whole entry): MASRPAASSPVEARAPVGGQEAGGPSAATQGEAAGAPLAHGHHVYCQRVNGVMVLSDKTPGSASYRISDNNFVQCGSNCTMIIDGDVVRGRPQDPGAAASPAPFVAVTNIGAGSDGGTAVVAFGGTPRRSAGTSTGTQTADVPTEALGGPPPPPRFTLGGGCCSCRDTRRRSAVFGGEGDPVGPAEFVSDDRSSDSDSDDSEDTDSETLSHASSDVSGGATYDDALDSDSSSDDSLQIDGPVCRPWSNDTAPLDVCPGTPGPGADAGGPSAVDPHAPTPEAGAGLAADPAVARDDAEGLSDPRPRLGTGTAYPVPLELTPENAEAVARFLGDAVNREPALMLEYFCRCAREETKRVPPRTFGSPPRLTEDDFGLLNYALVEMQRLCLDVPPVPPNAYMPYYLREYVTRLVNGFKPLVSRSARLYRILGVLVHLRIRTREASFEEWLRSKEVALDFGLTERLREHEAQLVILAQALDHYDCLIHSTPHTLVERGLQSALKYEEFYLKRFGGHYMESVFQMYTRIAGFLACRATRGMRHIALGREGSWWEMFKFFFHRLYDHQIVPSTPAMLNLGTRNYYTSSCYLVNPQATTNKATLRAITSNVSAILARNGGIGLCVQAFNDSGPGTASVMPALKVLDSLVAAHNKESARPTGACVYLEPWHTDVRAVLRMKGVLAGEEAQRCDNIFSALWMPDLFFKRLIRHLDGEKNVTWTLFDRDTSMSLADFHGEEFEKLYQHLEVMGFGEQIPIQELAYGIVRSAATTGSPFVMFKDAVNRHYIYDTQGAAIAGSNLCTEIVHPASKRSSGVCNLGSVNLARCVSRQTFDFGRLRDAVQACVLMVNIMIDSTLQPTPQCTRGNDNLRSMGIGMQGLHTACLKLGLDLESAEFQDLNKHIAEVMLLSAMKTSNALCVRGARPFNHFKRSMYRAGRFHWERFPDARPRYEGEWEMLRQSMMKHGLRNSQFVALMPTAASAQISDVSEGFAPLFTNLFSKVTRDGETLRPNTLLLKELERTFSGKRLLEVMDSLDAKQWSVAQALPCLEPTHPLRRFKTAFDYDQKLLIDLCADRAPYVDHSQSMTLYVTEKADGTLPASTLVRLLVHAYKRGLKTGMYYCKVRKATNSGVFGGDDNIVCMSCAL

| SMILES | EC50 (HSV-2) | IC50 [1] |
| --- | --- | --- |
| CC[C@@H](NC(=O)[C@@H](NC(=O)[C@H](CC(=O)N1CCCC1)NC(=O)[C@@H](NC(=O)[C@H](C(C)C)N(C)C(=O)C(Cc1ccccc1)Cc1ccccc1)C(C)(C)C)C1(C(=O)O)CCCC1)C(C)(C)C [(PhCH2)2 CHC (O)--(N-Me)-Val-Tbg-Asp(pyrrolidino)-Asp(cyPn)-NH--(R)--CH(C2 H5)C(CH3)3] (Dibenzylacetyl-[NMeV][Tle]D(Pyrrolidide)[Asp(3,3-(CH2)4)]-X1) | < 2 µM |  |
| CC(C)[C@@H](C(=O)N[C@H](C(=O)N[C@@H](CC(=O)N1CCCC1)C(=O)N[C@H](C(=O)N[C@@H](CC(C)(C)C)C(=O)O)C1(C(=O)O)CCCC1)C(C)(C)C)N(C)C(=O)C(Cc1ccccc1)Cc1ccccc1 [(PhCH2)2 CHC(O)--(N-Me)-Val-Tbg-Asp (pyrrolidino)-Asp(cyPn)-γMeLeu-OH] (Dibenzylacetyl-[NMeV][Tle]D(Pyrrolidide)[Asp(3,3-(CH2)4)][tBuAla]-OH) | 6 µM |  |
| CC(C)[C@@H](C(=O)N[C@H](C(=O)N[C@@H](CC(=O)N1CCCC1)C(=O)N[C@H](C(=O)NCC(C)(C)C)C1(C(=O)O)CCCC1)C(C)(C)C)N(C)C(=O)C(Cc1ccccc1)Cc1ccccc1 [(PhCH2)2 CHC(O)--(N-Me)-Val-Tbg-Asp(pyrrolidino)-Asp(cyPn)-NHCH2 C(CH3)3] (Dibenzylacetyl-[NMeV][Tle]D(Pyrrolidide)[Asp(3,3-(CH2)4)]-NHCH2tBu) | 1.6 µM |  |
| CC(C)[C@@H](C(=O)N[C@H](C(=O)N[C@@H](CC(=O)N1CCCC1)C(=O)N[C@H](C(=O)N[C@H](CO)CC(C)(C)C)C1(C(=O)O)CCCC1)C(C)(C)C)N(C)C(=O)C(Cc1ccccc1)Cc1ccccc1 [Example 3, (PhCH2)2 CHC(O)--(N-Me)-Val-Tbg-Asp(pyrrolidino)-Asp(cyPn)-γMeLeucinol] (Dibenzylacetyl-[NMeV][Tle]D(Pyrrolidide)[Asp(3,3-(CH2)4)]-{Leu(γ-Me)ol}) | 3 µM | 0.17 µM |
